The numbers were not newly measured in patent US10292953B2 (priority 2013, dated 2019), which cites them from elsewhere.

Where two headings read alike, the source gives them in different places.

One data set relates to porcine cornea. The settings on record: solution, in vitro.
Data set [1] deals with corneal pain. The settings on record: dogs, aqueous solution of 1%, topical ocular.
The test system of data set [2] is corneal pain. The settings on record: cats, aqueous solution of 1%, topical ocular.
A further data set relates to ulceration of the cornea. The settings on record: 1% topical solution, rabbits with ulceration of the cornea.

Turning to `CC(C)Cc1ccc(C(C)C(=O)O)cc1.N=C(N)NCCC[C@H](N)C(=O)O` (centres unmarked), in the data set on porcine cornea, the “effect on integrity of the cornea” value was “adversely affected the integrity of the cornea”.

Regarding `CC(C)Cc1ccc(C(C)C(=O)O)cc1.NCCCC[C@H](N)C(=O)O` (centres unmarked), in the data set on porcine cornea, the “effect on integrity of the cornea” value is “adversely affected the integrity of the cornea”.

Turning to `CN1CC[C@]23c4c5ccc(O)c4O[C@H]2[C@@H](O)C=C[C@H]3[C@H]1C5` [morphine], the “analgesic effects in treatment of corneal pain” value in the data set with corneal pain [1] and in the data set on corneal pain [2] was “did not demonstrate analgesic effects” each time.

Consider `Oc1ccc2c3c1O[C@H]1[C@@H](O)CC[C@@]4(O)[C@@H](C2)N(CC2CCC2)CC[C@]314` [nalbuphine], for which the analgesic efficacy entry with ulceration of the cornea is given as “Neither did the opioid semi-synthetic nalbuphine applied in the form of 1% topical solution demonstrate analgesic efficacy”.
